Activity calls are given as the source filed them. The rule behind the calls is not given here.
Key:
[1] = AUC (0 to t) in Sprague-Dawley rat at 1 mg/kg, iv administered as single dose measured for 24 hrs by LC-MS/MS analysis; format: ADME, organism-based; design: time 24 hrs, dose 1 mg/kg, route iv; settings: in vivo
[2] = Tmax in Sprague-Dawley rat at 1 mg/kg, iv administered as single dose measured for 24 hrs by LC-MS/MS analysis; format: ADME, organism-based; settings: in vivo
[3] = target: T1, ALK tyrosine kinase receptor (Homo sapiens, UniProt Q9UM73); test: Inhibition of ALK phosphorylation in human KARPAS-299 cells at 0.01 to 1 uM measured after 24 hrs by Western blot analysis; format: cell-based; settings: dose 0.01-1 µM
[4] = target: NPM/ALK (Nucleophosmin/ALK tyrosine kinase receptor) (Homo sapiens) (UniProt Q9UM73+P06748); test: Induction of NPM-ALK degradation in human KARPAS-299 cells assessed as reduction in NPM-ALK protein level at 1 uM measured after 24 hrs by Western blot analysis; format: cell-based
[5] = target: T2, Protein cereblon/ALK tyrosine kinase receptor/Nucleophosmin (Homo sapiens) (UniProt Q9UM73+P06748+Q96SW2); test: Protac activity at CRBN/NPM-ALK in human KARPAS-299 cells assessed as induction of NPM-ALK fusion protein degradation at 1 uM incubated for 24 hrs followed by compound washout and measured after 24 hrs by Western blot analysis; format: cell-based
[6] = system: KARPAS-299; test: Antitumor activity against human KARPAS-299 cells xenografted in NCG mouse assessed as reduction in tumor weight at 5 to 10 mg/kg, iv administered once every day for 3 weeks and measured every 3 days; format: functional, organism-based; settings: dose 5-10 mg/kg
[7] = Half life in Sprague-Dawley rat at 1 mg/kg, iv administered as single dose measured for 24 hrs by LC-MS/MS analysis; format: ADME, organism-based; settings: in vivo
[8] = Toxicity in NCG mouse xenografted with human KARPAS-299 cells assessed as spleen damage at 10 mg/kg, iv administered once every day for 3 weeks by H and E staining based analysis; format: organism-based; settings: in vivo, 504 h
[9] = target: T3, Protein cereblon/ALK tyrosine kinase receptor/Echinoderm microtubule-associated protein-like 4 (Homo sapiens) (UniProt Q9UM73+Q9HC35+Q96SW2); test: Protac activity at CRBN/EML4-ALK in human NCI-H3122 cells assessed as induction of EML4-ALK fusion protein degradation at 0.1 uM incubated for 16 hrs by Western blot analysis relative to control; format: cell-based
[10] = system: KARPAS-299; test: Antitumor activity against human KARPAS-299 cells xenografted in NCG mouse assessed as reduction in tumor weight at 25 to 50 mg/kg, ip administered once every day for 3 weeks and measured every 3 days; format: functional, organism-based; settings: dose 25-50 mg/kg
[11] = In vivo induction of degradation of ALK in human KARPAS-299 cells xenografted in NCG mouse assessed as ALK protein expression in tumor at 10 mg/kg, iv administered as single dose measured after 24 hrs by immunoblot analysis relative to control; format: functional
[12] = system: BaF3; test: Antiproliferative activity against crizotinib-resistant mouse BaF3 cells expressing EML-ALK G1202R mutant assessed as cell viability at 1 uM incubated for 72 hrs by Celltitre-Glo assay relative to control; format: functional; settings: read-out: Activity
[13] = MRTlast in Sprague-Dawley rat at 1 mg/kg, iv administered as single dose measured for 24 hrs by LC-MS/MS analysis; format: ADME, organism-based; settings: in vivo
[14] = target: Protein cereblon/ALK tyrosine kinase receptor/Echinoderm microtubule-associated protein-like 4 (Homo sapiens, UniProt Q96SW2+Q9HC35+Q9UM73); test: Protac activity at CRBN/EML4-ALK in human NCI-H3122 cells assessed as induction of EML4-ALK fusion protein degradation incubated for 16 hrs by Western blot analysis; format: cell-based
[15] = MRTlast in Sprague-Dawley rat at 50 mg/kg, ip administered as single dose measured for 24 hrs by LC-MS/MS analysis; format: ADME, organism-based; settings: in vivo
[16] = Cmax in Sprague-Dawley rat at 50 mg/kg, ip administered as single dose measured for 24 hrs by LC-MS/MS analysis; format: ADME, organism-based; design: dose 50 mg/kg, time 24 hrs, route ip; settings: in vivo
[17] = target: T3, Protein cereblon/ALK tyrosine kinase receptor/Echinoderm microtubule-associated protein-like 4 (Homo sapiens); test: Protac activity at CRBN/EML4-ALK in human NCI-H3122 cells assessed as induction of EML4-ALK fusion protein degradation at 1 uM incubated for 16 hrs by Western blot analysis relative to control; format: cell-based
[18] = target: T2, Protein cereblon/ALK tyrosine kinase receptor/Nucleophosmin (Homo sapiens); test: Protac activity at CRBN/NPM-ALK in human KARPAS-299 cells assessed as induction of NPM-ALK fusion protein degradation at 0.1 uM incubated for 24 hrs by Western blot analysis relative to control; format: cell-based
[19] = system: KARPAS-299; test: Antiproliferative activity against ALK-positive human KARPAS-299 cells assessed as inhibition of cell proliferation measured after 72 hrs by MTT assay; format: functional, cell-based; settings: KARPAS-299, 72 h
[20] = Half life in Sprague-Dawley rat at 50 mg/kg, ip administered as single dose measured for 24 hrs by LC-MS/MS analysis; format: ADME, organism-based; settings: in vivo
[21] = target: Signal transducer and activator of transcription 3 (Homo sapiens) (UniProt P40763); test: Inhibition of STAT3 phosphorylation in human KARPAS-299 cells as 0.01 to 1 uM measured after 24 hrs by Western blot analysis; format: cell-based; settings: dose 0.01-1 µM
[22] = Volume of distribution in Sprague-Dawley rat at 50 mg/kg, ip administered as single dose measured for 24 hrs by LC-MS/MS analysis; format: ADME, organism-based; settings: in vivo
[23] = target: T3, Protein cereblon/ALK tyrosine kinase receptor/Echinoderm microtubule-associated protein-like 4 (Homo sapiens); test: Protac activity at CRBN/EML4-ALK in human NCI-H3122 cells assessed as induction of EML4-ALK fusion protein degradation at 0.25 uM incubated for 16 hrs by Western blot analysis; format: cell-based
[24] = system: KARPAS-299; test: Downregulation of SOCS3 protein expression in human KARPAS-299 cells at 1 uM incubated for 24 hrs by iTRAQ proteomics analysis; format: functional, cell-based
[25] = target: T1, ALK tyrosine kinase receptor; test: Inhibition of ALK phosphorylation in human KARPAS-299 cells at 100 nM measured after 48 hrs by Western blot analysis; format: cell-based
[26] = system: KARPAS-299; test: Antitumor activity against human KARPAS-299 cells xenografted in NCG mouse assessed as increase in ALK protein degradation at 5 to 10 mg/kg, iv administered once every day for 3 weeks; format: functional, organism-based; settings: dose 5-10 mg/kg
[27] = Toxicity in NCG mouse xenografted with human KARPAS-299 cells assessed as kidney damage at 10 mg/kg, iv administered once every day for 3 weeks by H and E staining based analysis; format: organism-based; settings: in vivo, 504 h
[28] = Toxicity in NCG mouse xenografted with human KARPAS-299 cells assessed as lung damage at 10 mg/kg, iv administered once every day for 3 weeks by H and E staining based analysis; format: organism-based; settings: in vivo, 504 h
[29] = In vivo induction of degradation of ALK in human KARPAS-299 cells xenografted in NCG mouse assessed as reduction in ALK protein expression in tumor at 10 mg/kg, iv administered as single dose measured after 12 hrs by immunoblot analysis relative to control; format: functional; design: scale not given: the % may be the effect or the level left
[30] = target: T1, ALK tyrosine kinase receptor; test: Inhibition of ALK phosphorylation in human KARPAS-299 cells at 1 uM incubated for 24 hrs followed by compound washout and measured after 72 hrs by Western blot analysis; format: cell-based
[31] = system: KARPAS-299; test: Downregulation of ALK protein expression in human KARPAS-299 cells at 1 uM incubated for 24 hrs by iTRAQ proteomics analysis; format: functional, cell-based
[32] = Cmax in Sprague-Dawley rat at 1 mg/kg, iv administered as single dose measured for 24 hrs by LC-MS/MS analysis; format: ADME, organism-based; design: time 24 hrs, dose 1 mg/kg, route iv; settings: in vivo

T3 sequence (Q96SW2 whole entry partner, the tested form may be a part): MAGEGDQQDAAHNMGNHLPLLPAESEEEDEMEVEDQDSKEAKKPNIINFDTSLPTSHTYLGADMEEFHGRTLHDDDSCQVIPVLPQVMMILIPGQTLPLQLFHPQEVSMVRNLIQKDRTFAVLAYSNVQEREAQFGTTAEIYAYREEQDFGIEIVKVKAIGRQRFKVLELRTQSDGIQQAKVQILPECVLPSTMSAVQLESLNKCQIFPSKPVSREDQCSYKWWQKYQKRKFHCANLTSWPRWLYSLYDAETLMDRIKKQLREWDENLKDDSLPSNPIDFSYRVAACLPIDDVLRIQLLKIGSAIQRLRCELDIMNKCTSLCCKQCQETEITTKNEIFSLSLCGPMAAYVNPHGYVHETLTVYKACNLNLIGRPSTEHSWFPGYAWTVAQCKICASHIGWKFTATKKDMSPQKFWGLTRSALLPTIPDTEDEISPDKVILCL
T3 sequence (Q9HC35 whole entry partner, the tested form may be a part): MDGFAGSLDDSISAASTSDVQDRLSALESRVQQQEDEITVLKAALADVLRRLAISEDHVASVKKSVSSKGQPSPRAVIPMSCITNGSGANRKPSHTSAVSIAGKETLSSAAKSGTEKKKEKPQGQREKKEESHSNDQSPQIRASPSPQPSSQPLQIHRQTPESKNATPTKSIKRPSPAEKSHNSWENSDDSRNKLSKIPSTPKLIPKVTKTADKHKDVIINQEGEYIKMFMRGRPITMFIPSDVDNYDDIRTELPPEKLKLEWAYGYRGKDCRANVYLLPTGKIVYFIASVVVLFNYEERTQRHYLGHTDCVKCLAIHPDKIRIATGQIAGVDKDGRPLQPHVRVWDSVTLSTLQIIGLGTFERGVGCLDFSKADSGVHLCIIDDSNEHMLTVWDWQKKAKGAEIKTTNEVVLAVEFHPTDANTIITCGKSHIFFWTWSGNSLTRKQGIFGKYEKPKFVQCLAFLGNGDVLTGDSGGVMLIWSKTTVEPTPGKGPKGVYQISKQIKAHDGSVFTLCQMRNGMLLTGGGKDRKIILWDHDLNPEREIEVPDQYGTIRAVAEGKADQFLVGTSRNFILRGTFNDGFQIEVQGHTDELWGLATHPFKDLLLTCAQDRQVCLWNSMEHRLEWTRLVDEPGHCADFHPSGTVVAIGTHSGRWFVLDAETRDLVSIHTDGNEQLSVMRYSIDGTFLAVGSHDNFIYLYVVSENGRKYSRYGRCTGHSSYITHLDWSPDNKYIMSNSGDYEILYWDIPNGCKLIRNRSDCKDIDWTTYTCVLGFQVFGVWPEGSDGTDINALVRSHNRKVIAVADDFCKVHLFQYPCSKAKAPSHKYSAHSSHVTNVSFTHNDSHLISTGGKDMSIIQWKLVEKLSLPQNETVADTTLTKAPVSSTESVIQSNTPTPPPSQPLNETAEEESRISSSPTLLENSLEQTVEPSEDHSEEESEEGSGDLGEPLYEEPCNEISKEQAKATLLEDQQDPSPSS
T3 sequence (Q9UM73 19-1620 limits assumed): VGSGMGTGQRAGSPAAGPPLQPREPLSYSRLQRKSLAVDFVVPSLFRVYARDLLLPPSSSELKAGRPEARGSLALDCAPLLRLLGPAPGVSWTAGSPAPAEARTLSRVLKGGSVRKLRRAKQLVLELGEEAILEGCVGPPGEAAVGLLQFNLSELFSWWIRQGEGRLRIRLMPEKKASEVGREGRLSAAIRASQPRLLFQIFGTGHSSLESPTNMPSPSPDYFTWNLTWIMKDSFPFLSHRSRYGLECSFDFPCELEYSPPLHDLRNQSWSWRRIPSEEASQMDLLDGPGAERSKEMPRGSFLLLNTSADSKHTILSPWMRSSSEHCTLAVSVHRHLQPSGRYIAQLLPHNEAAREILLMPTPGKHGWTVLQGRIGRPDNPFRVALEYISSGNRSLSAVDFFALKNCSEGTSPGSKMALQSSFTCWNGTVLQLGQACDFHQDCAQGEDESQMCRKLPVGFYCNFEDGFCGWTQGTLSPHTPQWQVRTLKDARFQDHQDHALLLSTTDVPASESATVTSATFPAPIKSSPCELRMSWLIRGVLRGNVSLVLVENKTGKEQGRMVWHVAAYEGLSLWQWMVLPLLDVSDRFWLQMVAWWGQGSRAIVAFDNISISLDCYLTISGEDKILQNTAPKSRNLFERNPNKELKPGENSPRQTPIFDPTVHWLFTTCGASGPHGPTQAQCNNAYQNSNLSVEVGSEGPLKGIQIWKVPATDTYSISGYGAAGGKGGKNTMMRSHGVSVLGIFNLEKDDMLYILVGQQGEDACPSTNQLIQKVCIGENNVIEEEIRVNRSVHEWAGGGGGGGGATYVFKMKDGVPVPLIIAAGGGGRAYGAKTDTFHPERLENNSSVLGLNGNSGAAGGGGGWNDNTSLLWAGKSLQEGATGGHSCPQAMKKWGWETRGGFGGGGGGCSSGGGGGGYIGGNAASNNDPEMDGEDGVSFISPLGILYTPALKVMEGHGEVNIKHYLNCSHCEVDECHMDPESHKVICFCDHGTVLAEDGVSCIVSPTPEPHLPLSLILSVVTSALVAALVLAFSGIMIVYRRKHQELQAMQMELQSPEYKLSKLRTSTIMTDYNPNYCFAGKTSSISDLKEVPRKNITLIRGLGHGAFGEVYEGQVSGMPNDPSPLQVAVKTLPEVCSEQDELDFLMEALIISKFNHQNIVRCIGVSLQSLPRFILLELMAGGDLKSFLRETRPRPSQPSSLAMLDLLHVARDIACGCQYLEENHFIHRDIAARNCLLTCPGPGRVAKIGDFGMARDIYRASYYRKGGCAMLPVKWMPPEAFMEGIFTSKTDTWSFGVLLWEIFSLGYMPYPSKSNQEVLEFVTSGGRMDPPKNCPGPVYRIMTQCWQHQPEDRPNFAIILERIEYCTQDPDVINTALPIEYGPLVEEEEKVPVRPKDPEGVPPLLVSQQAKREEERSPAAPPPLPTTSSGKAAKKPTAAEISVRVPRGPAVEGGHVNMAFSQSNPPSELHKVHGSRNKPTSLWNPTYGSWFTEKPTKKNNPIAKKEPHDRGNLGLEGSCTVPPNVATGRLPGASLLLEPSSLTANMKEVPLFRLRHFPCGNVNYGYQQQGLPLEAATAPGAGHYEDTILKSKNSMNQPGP
T1 sequence (Q9UM73 19-1620 limits assumed): as above
T2 sequence (P06748 whole entry partner, the tested form may be a part): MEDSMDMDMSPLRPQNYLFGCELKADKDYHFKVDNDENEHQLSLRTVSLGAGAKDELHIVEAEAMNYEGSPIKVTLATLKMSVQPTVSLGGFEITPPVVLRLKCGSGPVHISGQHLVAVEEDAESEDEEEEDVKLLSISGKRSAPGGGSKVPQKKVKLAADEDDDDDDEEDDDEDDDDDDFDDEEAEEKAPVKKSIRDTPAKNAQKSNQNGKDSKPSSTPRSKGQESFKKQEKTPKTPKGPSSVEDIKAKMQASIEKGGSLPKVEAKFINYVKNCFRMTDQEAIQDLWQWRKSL
T2 sequence (Q96SW2 whole entry partner, the tested form may be a part): as the sequence (Q96SW2 whole entry partner, the tested form may be a part) above
T2 sequence (Q9UM73 19-1620 limits assumed): as the sequence (Q9UM73 19-1620 limits assumed) above
Chain of Signal transducer and activator of transcription 3 (Homo sapiens) (P40763 whole entry): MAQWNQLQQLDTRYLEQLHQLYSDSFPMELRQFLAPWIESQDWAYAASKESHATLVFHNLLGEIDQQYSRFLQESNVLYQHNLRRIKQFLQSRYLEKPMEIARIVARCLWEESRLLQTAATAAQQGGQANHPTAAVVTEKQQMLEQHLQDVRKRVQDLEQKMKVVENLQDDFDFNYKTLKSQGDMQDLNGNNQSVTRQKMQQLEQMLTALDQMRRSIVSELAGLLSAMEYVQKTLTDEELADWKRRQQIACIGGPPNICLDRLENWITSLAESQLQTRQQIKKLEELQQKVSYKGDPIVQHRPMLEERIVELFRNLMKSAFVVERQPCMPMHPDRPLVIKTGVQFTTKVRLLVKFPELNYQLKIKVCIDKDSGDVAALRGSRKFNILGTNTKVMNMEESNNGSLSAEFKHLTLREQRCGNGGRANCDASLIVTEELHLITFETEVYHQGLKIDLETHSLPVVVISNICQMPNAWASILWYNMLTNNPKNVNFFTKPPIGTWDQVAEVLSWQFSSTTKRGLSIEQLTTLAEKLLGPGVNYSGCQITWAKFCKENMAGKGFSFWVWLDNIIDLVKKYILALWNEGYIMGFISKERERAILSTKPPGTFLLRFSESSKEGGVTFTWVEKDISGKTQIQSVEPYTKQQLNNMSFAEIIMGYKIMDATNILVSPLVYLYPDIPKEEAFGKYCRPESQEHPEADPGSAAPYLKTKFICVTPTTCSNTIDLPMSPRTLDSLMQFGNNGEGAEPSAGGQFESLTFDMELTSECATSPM
Chain of NPM/ALK (Nucleophosmin/ALK tyrosine kinase receptor) (Homo sapiens) (P06748 whole entry partner, the tested form may be a part): as the sequence (P06748 whole entry partner, the tested form may be a part) above
Chain of NPM/ALK (Nucleophosmin/ALK tyrosine kinase receptor) (Homo sapiens) (Q9UM73 19-1620 limits assumed): as the sequence (Q9UM73 19-1620 limits assumed) above

CCc1cc2c(cc1N1CCN(C(=O)CNc3cccc4c3C(=O)N(C3CCC(=O)NC3=O)C4=O)CC1)C(C)(C)c1[nH]c3cc(C#N)ccc3c1C2=O (configuration not stated)
AUC(0-t) at 24 h [1]: 0.146 µg·h/mL
Tmax [2]: 1.8 min
inhibition [3]: Active
Activity [4]: Active
Activity [5]: Active
Activity [6]: Active
half-life [7]: 25.2 min
Activity [8]: Non-Toxic
Activity [9]: 50.3%
Activity [10]: Active
Activity [11]: 18.7%
viability at 1 µM [12]: 77.6%
MRT last at 24 h [13]: 4.2 min
EC50 [14]: 0.0274 µM
MRT last at 24 h [15]: 596 min
Cmax [16]: 0.109 µg/mL
Activity [17]: 83.6%
Activity [18]: 8.6%
IC50 [19]: 0.042 µM
half-life [20]: 1830 min
inhibition [21]: Active
Vd [22]: 1685.67 L/kg
Activity [23]: Active
Activity [24]: Active
inhibition [25]: Active
Activity [26]: Active
Activity [27]: Non-Toxic
Activity [28]: Non-Toxic
Activity [29]: >85%
inhibition [30]: Active
Activity [31]: Active
Cmax [32]: 0.994 µg/mL

— ChEMBL document CHEMBL5096194, “Development of Alectinib-Based PROTACs as Novel Potent Degraders of Anaplastic Lymphoma Kinase (ALK)” (J Med Chem, 2021)
